Experimental data reported in publication PMC9127186, “Molecular Basis Underlying Hepatobiliary and Renal Excretion of Phenolic Acids of Salvia miltiorrhiza Roots (Danshen)” (Frontiers in Pharmacology, 2022).

Key:
rat Oct1 = target: T1, rat Oct1 (Rattus norvegicus, UniProt Q63089); settings: 10 min, 100 μM
T1 sequence (Q63089 1-556): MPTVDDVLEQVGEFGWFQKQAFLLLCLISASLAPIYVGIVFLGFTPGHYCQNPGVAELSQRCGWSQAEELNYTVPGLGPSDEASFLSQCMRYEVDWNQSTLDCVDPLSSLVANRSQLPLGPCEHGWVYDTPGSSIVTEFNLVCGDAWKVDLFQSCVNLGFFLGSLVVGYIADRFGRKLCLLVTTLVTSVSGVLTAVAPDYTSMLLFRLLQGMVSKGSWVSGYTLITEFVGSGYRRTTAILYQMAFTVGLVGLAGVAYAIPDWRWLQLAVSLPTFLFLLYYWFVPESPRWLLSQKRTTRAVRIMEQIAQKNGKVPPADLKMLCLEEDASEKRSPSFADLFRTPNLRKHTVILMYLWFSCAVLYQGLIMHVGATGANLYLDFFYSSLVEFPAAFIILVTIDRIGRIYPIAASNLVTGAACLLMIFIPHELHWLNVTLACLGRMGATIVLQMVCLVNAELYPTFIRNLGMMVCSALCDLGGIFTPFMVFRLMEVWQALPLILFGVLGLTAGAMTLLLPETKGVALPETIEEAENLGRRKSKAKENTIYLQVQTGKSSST

human PEPT2 = target: T2, human PEPT2 (Homo sapiens, UniProt Q16348); settings: 10 min, 100 μM, pH 6
T2 sequence (Q16348 1-729): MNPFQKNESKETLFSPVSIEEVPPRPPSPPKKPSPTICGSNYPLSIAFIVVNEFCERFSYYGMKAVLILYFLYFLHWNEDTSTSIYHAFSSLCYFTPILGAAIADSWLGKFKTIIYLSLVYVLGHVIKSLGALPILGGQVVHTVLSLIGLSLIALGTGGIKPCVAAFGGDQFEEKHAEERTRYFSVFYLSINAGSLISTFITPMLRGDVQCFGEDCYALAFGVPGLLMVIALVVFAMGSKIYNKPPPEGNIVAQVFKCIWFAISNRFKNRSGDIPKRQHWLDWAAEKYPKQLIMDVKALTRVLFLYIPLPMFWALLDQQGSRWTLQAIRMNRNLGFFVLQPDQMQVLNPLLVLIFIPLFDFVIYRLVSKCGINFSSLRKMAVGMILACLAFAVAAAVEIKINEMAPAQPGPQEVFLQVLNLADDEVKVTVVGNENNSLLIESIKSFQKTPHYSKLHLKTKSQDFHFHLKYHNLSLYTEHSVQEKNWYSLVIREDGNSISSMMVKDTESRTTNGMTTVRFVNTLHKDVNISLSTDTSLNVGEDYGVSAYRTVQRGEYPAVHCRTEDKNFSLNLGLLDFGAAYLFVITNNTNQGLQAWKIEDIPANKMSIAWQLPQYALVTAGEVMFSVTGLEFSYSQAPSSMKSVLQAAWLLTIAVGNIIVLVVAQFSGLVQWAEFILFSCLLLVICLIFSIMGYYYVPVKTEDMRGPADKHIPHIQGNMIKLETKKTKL

human OATP2B1 = target: T3, human OATP2B1 (Homo sapiens, UniProt O94956); settings: 10 min, 100 μM
T3 sequence (O94956 1-709): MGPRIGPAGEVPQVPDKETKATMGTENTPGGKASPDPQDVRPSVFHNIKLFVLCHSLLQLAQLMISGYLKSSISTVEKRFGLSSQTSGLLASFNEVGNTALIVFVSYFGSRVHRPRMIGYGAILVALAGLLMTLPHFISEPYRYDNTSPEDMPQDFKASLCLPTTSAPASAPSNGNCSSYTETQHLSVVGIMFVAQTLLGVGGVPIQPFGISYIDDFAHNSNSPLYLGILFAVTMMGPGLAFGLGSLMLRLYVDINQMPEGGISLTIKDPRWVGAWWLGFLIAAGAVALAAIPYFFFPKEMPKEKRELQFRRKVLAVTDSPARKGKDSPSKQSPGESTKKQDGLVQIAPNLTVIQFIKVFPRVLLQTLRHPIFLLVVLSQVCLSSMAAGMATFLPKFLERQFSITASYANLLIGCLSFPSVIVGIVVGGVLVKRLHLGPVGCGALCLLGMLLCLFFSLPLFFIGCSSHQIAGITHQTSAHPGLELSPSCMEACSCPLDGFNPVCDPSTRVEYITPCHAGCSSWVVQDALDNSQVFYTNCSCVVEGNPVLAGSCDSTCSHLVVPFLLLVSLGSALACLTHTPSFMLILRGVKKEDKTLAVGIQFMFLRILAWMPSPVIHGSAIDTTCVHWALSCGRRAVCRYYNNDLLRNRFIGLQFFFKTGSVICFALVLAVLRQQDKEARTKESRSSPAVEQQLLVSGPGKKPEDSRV

human PEPT1 = target: T4, human PEPT1 (Homo sapiens, UniProt P46059); settings: 10 min, 100 μM, pH 6
T4 sequence (P46059 1-708): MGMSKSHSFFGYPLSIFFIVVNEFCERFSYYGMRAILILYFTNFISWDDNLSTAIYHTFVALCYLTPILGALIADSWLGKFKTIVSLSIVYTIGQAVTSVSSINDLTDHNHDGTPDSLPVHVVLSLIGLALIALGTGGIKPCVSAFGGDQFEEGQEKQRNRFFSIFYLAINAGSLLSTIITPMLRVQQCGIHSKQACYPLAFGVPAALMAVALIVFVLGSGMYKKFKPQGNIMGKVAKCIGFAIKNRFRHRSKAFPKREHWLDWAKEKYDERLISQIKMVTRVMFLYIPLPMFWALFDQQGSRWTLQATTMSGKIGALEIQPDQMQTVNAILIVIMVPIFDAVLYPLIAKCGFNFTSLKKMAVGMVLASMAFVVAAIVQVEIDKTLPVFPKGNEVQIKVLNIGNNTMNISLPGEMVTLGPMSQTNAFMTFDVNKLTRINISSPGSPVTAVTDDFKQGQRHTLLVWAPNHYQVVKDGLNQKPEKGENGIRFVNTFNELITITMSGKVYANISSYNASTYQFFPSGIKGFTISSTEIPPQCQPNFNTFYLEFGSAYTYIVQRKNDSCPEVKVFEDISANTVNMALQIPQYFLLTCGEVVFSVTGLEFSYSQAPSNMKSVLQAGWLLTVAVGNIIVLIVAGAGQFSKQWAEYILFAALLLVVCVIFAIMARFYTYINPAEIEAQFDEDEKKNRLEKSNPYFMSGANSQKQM

O=C(/C=C/c1ccc(O)c(O)c1/C=C/c1ccc(O)c(O)c1)O[C@H](Cc1ccc(O)c(O)c1)C(=O)O [Salvianolic acid A, salvianolic acid A]
TransportTC/TransportMC ratio (net transport ratio) (rat Oct1): 1.13 ± 0.19 | TransportTC/TransportMC ratio (net transport ratio) (human PEPT2): 1.14 ± 0.31 | TransportTC/TransportMC ratio (net transport ratio) (human OATP2B1): 2.45 ± 0.34 | TransportTC/TransportMC ratio (net transport ratio) (human PEPT1): 1.45 ± 0.27

O=C(/C=C/c1ccc(O)c(O)c1)O[C@H](Cc1ccc(O)c(O)c1)C(=O)O [Rosmarinic acid, rosmarinic acid]
TransportTC/TransportMC ratio (net transport ratio) (rat Oct1): 1.56 ± 0.13 | TransportTC/TransportMC ratio (net transport ratio) (human PEPT2): 1.12 ± 0.22 | TransportTC/TransportMC ratio (net transport ratio) (human OATP2B1): 1.69 ± 0.71 | TransportTC/TransportMC ratio (net transport ratio) (human PEPT1): 1.42 ± 0.53
